For assay [1], the system named is AGS. The assay is described as follows: Composite Synergy Score, Cell-Titer Glo 72 hours, dose matrix with MRTX1133. Conditions: combined with MRTX1133. The class given is cell-based. The method, then:
(§1) Assays for determining the synergy score for the pairwise combinations for each cell line were performed in triplicate. Three 96-well plates plus an additional 4 wells of a separate 96-well control plate for determining baseline luminescence were seeded with 2000 cells/well of a particular cell line in a total volume of 90 μl of a suitable growth medium for that cell line, e.g., RPMI 1640 medium supplemented with 10% FBS and any cell line specific reagents need for growth. The plates were incubated overnight at 37° C. in a 5% CO2 atmosphere.
(§2) To each of the designated baseline wells, 30 μl of Cell-Titer Glo reagent (CTG; Promega Corporation) was added to each well and the plates were incubated for 20 min with shaking at room temperature. Baseline luminescence was quantitated using a BMG ClarioStar multimode plate reader according to the manufacturer's instructions.
(§3) A series of working stock 1000× drug dilutions in 100% DMSO was prepared that includes an 8 point single agent dilution of MRTX 1133 and a 5-point single agent dilution of the pan ErbB family inhibitor. The dilutions used for MRTX1133 and the pan ErbB family inhibitor varied for each individual compound but were in the range of 3- to 6-fold/serial dilution.
(§4) A 10× intermediate dosing plate was prepared in serum free RPMI medium that contains arrayed single agent dilutions MRTX1133 or the pan ErbB family inhibitor. In addition, a matrix of 40 dilution combinations of MRTX1133 and the pan ErbB family inhibitor was prepared as test samples.
(§5) To each corresponding well of the three 96-well plates seeded with the appropriate cell line above, 10 μl of each 10× single agent and the 40 combinations of the dose matrix was added and the plates were incubated for 72 hours at 37 C in 5% CO2 atmosphere. A 30 μl aliquot of Cell-Titer Glo reagent (CTG) was added to each test well, the plates were incubated for 20 min with shaking at room temperature, and luminescence was quantitated using a BMG ClarioStar multimode plate reader according to the manufacturer's instructions.
(§6) The output of the data from each mathematical model is the assignment of a relative synergy score. The data reported in Table 1 are the aggregate sum of the Loewe additivity, Bliss independence, Highest Single Agent and ZIP scores (“Composite Synergy Score”).
(§7) The output of the data from each mathematical model is the assignment of a relative synergy score.

In assay [2] the test system is ASPC1. The assay is described as above. The assay is classed as cell-based. Conditions: combined with MRTX1133. Here is the method:
as §1, §2, §3, §4, §5, §6, §7

For assay [3], the system named is GP2D. Described as above. The class given is cell-based. Conditions: combined with MRTX1133. Here is the method: as §1, §2, §3, §4, §5, §6, §7
For assay [4], the system named is HCC1588. Described as above. The assay is classed as cell-based. Conditions: combined with MRTX1133. Here is the method:
as §1, §2, §3, §4, §5, §6, §7

The subject of assay [5] is HPAC. The description is as above. The assay is classed as cell-based. Conditions: combined with MRTX1133. The method, then: as §1, §2, §3, §4, §5, §6, §7
Assay [6] has as its system HPAFII. The description is as above. Conditions: combined with MRTX1133. The class given is cell-based. Here is the method:
as §1, §2, §3, §4, §5, §6, §7

The test system of assay [7] is Hec1B. The assay is described as above. The class given is cell-based. Conditions: combined with MRTX1133. The method, then:
as §1, §2, §3, §4, §5, §6, §7

Assay [8] concerns LS180. The description is as above. The assay is classed as cell-based. The note with it: combined with MRTX1133. Here is the method: as §1, §2, §3, §4, §5, §6, §7
Assay [9] deals with LS513. Described as above. Conditions: combined with MRTX1133. The class given is cell-based. Here is the method:
as §1, §2, §3, §4, §5, §6, §7

Assay [10] deals with Panc0203. The assay is described as above. The class given is cell-based. Conditions: combined with MRTX1133. The method, then:
as §1, §2, §3, §4, §5, §6, §7

The subject of assay [11] is Panc0403. The description is as above. The assay is classed as cell-based. The note with it: combined with MRTX1133. The method, then: as §1, §2, §3, §4, §5, §6, §7
The test system of assay [12] is Panc0504. The assay is described as above. The class given is cell-based. The note with it: combined with MRTX1133. Here is the method:
as §1, §2, §3, §4, §5, §6, §7

The subject of assay [13] is Panc0813. The assay is described as above. The assay is classed as cell-based. Conditions: combined with MRTX1133. The method, then: as §1, §2, §3, §4, §5, §6, §7
Assay [14] deals with Panc1005. The description is as above. The assay is classed as cell-based. Conditions: combined with MRTX1133. The method, then:
as §1, §2, §3, §4, §5, §6, §7

Assay [15] concerns Panc1. The description is as above. Conditions: combined with MRTX1133. The class given is cell-based. Here is the method:
as §1, §2, §3, §4, §5, §6, §7

Assay [16] has as its system SNU1033. The assay is described as above. The class given is cell-based. Conditions: combined with MRTX1133. Here is the method:
as §1, §2, §3, §4, §5, §6, §7

Assay [17] relates to SNU1197. The description is as above. Conditions: combined with MRTX1133. The class given is cell-based. Here is the method:
as §1, §2, §3, §4, §5, §6, §7

Assay [18] concerns SNU407. Described as above. The class given is cell-based. The note with it: combined with MRTX1133. Here is the method: as §1, §2, §3, §4, §5, §6, §7
Assay [19] concerns SNU410. The assay is described as above. The class given is cell-based. The note with it: combined with MRTX1133. The method, then:
as §1, §2, §3, §4, §5, §6, §7

Assay [20] deals with SNU61. The description is as above. The class given is cell-based. The note with it: combined with MRTX1133. Here is the method: as §1, §2, §3, §4, §5, §6, §7
In assay [21] the test system is SNUC2B. The description is as above. The assay is classed as cell-based. The note with it: combined with MRTX1133. The method, then:
as §1, §2, §3, §4, §5, §6, §7

Assay [22] concerns SU8684. Described as above. The assay is classed as cell-based. Conditions: combined with MRTX1133. Here is the method: as §1, §2, §3, §4, §5, §6, §7
Assay [23] relates to SUIT2. The description is as above. The class given is cell-based. The note with it: combined with MRTX1133. The method, then:
as §1, §2, §3, §4, §5, §6, §7

The subject of assay [24] is SW1990. Described as above. The assay is classed as cell-based. The note with it: combined with MRTX1133. The method, then: as §1, §2, §3, §4, §5, §6, §7
Assay [25] relates to HPAC cells. The assay can be described thus: HPAC TGI 73 pancreatic cancer xenograft, tumor volumes. The assay is classed as in vivo, nude/nude mice. The note with it: for Average Tumor Volumes: 30 mg/kg IP BID daily. The method, then: Immunocompromised nude/nude mice are inoculated in the right hind flank with cells harboring a KRas G12D mutation. When tumor volumes reach between 200-400 mm^3 in size, the mice are divided into four to five groups of 5 mice each. The first group is administered vehicle only. […] The fourth or last groups are administered the single agent dose of the KRas G12D inhibitor using the twice daily schedule and/or the 2 sequential days followed by 5 days off schedule in combination with the single agent dose of one of the EGFR inhibitors. The treatment period varies from cell line to cell line but typically is between 15-40 days. Tumor volumes are measured using a caliper every two-three days and tumor volumes are calculated by the formula: […].
Experimental Procedures. 20 nude/nude mice were inoculated with HPAC cells in the right hind flank. When the tumors reached ˜200 mm^3 four treatment groups were established with five mice per group.

Consider `CN(C)C/C=C/C(=O)Nc1cc2c(Nc3ccc(F)c(Cl)c3)ncnc2cc1OC1CCOC1` (centres unmarked) [Afatinib, (E)-N-(4-((3-chloro-4-fluorophenyl)amino)-7-((tetrahydrofuran-3-yl)oxy)quinazolin-6-yl)-4-(dimethylamino)but-2-enamide, reference compound], for which the “Composite Synergy Score” value in assay [1] is 36; in [2] it was 28; in assay [3] it was 26; in [4], 10; in [5] it was 33; in [6], 23. Moreover, the “Composite Synergy Score” value in [7] is listed as −5; in [8] it was 76; in assay [9], 69; in assay [10], 54; in [11] it was 40; in [12] it was 24. In addition, the “Composite Synergy Score” value in [13] is 20; in [14] it was 37; in assay [15] it was −6; in assay [16] it was 30; in assay [17], 63; in assay [18], 23. The “Composite Synergy Score” value is on record as −13 in assay [19]; 44 in [20]; 25 in assay [21]; 42 in assay [22]; 45 in assay [23]; 57 in [24].
Take `C#Cc1c(F)ccc2cc(O)cc(-c3ncc4c(N5C[C@H]6CC[C@@H](C5)N6)nc(OC[C@@]56CCCN5C[C@H](F)C6)nc4c3F)c12` [MRTX1133, 4-(4-((1R,5S)-3,8-diazabicyclo[3.2.1]octan-3-yl)-8-fluoro-2-(((2R,7aS)-2-fluorohexahydro-1H-pyrrolizin-7a-yl)methoxy)pyrido[4,3-d]pyrimidin-7-yl)-5-ethynyl-6-fluoronaphthalen-2-ol]: the “Average Tumor Volumes” value in [25] (Study Day 0) amounted to 196.76 mm^3; in assay [25] (Study Day 3), 149.646 mm^3; in assay [25] (Study Day 7) it was 107.504 mm^3; in assay [25] (Study Day 10) it was 99.742 mm^3; in [25] (Study Day 14) it was 91.818 mm^3; in assay [25] (Study Day 17), 93.348 mm^3. In addition, the “Average Tumor Volumes” value in assay [25] (Study Day 21) was 74.006 mm^3. The tumor regression in assay [25] (30 mg/kg daily, single agent, Day 21) is −62%.

The values above are taken from patent publication US20240408099A1, “COMBINATION […] OF KRAS G12D INHIBITORS WITH Pan ErbB FAMILY INHIBITORS” (MIRATI THERAPEUTICS, INC., priority 2021, published 2024).
